Test results reported in patent publication US20080219973A1, “Pharmaceutical Composition Having Inhibitory Effect on Overproduction and Accumulation of Extracellular Matrix” (TEIJIN LIMITED, priority 1998, published 2008).

Experiments:
Format in all cases: cell-based
[1] = system: rat mesangium cells; test: Suppressive activity of galectin-3 on the cellular death of rat mesangium cells (MTS tetrazolium conversion); conditions: 50 μg/ml galectin-3; presence and absence of 0.4 ng/ml TGF-β; day 1-4; FIG. 3
Protocol: Rat mesangium cells were separated from Sprague-Dawley rats according to the method of Striker et al. (Striker, G. E., et al., Lab. Invest. (1985) 53; 123-128). The separated rat mesangium cells were cultured at 37° C. in the presence of 5% CO2 in the wells of a 96-well plate using an essential medium (DMEM/F12 (1:1) culture medium containing 60 μg/ml penicillin, 100 μg/ml streptomycin, manufactured by Gibco BRL) supplemented with 10% fetal bovine serum. After culturing to semi-confluence, the cultured rat mesangium cells were washed with the essential medium, cultured for 2 days in the essential medium supplemented with 0.1% bovine serum albumin (Sigma), and then were further cultured for 1 to 4 days in the essential medium supplemented with 0.1% bovine serum albumin (Sigma) containing 0 or 50 μg/ml galectin-3 and 0 or 0.4 ng/ml TGF-β. On day 1, 2, 3, and 4 after the addition of galectin-3 and TGF-β, the amount of the cultured rat mesangium cells that survived in their respective wells were measured using as an index the conversion from MTS tetrazolium (Cell Titer 96 Aqueous one solution manufactured by Promega) to formazan by the living cells.

[2] = system: rat mesangium cells; test: Promoting effect of galectin-3 on collagen type IV production by mesangium cells (sandwich ELISA); conditions: 10 or 30 μg/ml galectin-3; 0-1.6 ng/ml TGF-β; day 3; FIG. 4
Protocol: Rat mesangium cells were separated in a similar manner to that of Example 3. The separated mesangium cells were cultured at 37° C. in the presence of 5% CO2 in the wells of a 96-well plate using an essential medium (DMEM/F12 (1:1) culture medium containing 60 μg/ml penicillin, 100 μg/ml streptomycin, manufactured by Gibco BRL) supplemented with 10% fetal bovine serum. After culturing to confluence, the cultured rat mesangium cells were washed with the essential medium, cultured for 1 to 2 days in the essential medium supplemented with 0.1% bovine serum albumin (Sigma), and then were further cultured for 3 days in the essential medium supplemented with 0.1% bovine serum albumin (Sigma) containing 0, 10 or 30 μg/ml galectin-3 and 0, 0.1, 0.4 or 1.6 ng/ml TGF-β. On day 3 after the addition of galectin-3 and TGF-β, the amount of type IV collagen accumulated in the culture liquid was measured using a sandwich ELISA method that employed a goat anti-type IV collagen antibody as the immobilized antibody and a biotin-labeled goat anti-type IV collagen antibody (Chemicon) as the primary antibody. The amount of type IV collagen in the culture liquid of each well was normalized by dividing it by the amount of the living cells in each well determined in a similar manner to that described in Example 3.

[3] = target: galectin-3 (Homo sapiens, UniProt P17931); test: Inhibition by galectin-3-binding inhibiting sugar of galectin-3-promoted collagen type IV production by rat mesangium cells; conditions: 0.4 μg/ml galectin-3, 0.25-2 mM LNFP-I, day 2, FIG. 6
Protocol: Rat mesangium cells were separated in a similar manner to that described in Example 3. The separated rat mesangium cells were cultured at 37° C. in the presence of 5% CO2 in the wells of a 96-well plate using an essential medium (DMEM/F12 (1:1) culture medium containing 60 μg/ml penicillin, 100 μg/ml streptomycin, manufactured by Gibco BRL) supplemented with 10% fetal bovine serum. […] On day 2 after the addition of galectin-3 and LNFP-I, the amount of type IV collagen accumulated in the culture liquid of each well was measured using a sandwich ELISA method that employed a goat anti-type IV collagen antibody (Chemicon) as an immobilized antibody and a biotin-labeled goat anti-type IV collagen antibody (Chemicon) as a primary antibody. The amount of type IV collagen in the culture medium of each well was normalized by dividing it by the amount of the living cells in each well determined in a similar manner to that described in Example 4.

galectin-3, sequence (P17931 whole entry, species assumed): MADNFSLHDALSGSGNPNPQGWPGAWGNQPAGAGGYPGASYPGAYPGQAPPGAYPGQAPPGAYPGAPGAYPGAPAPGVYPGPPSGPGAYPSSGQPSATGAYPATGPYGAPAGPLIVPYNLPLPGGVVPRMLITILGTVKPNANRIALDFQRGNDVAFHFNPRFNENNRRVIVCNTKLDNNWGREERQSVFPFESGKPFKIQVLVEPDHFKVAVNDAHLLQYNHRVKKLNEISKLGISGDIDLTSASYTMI

| Substance | cellular death of the rat mesangium cells (amount of surviving cells) [1] | production and/or accumulation of type IV collagen in culture liquid, normalized to living cells [2] | suppression of galectin-3-promoted production and/or accumulation of type IV collagen [3] |
| --- | --- | --- | --- |
| galectin-3: protein of about 30 Kd belonging to the family of β-galactoside binding protein; a lectin | suppress the cellular death | promotes the production and/or the accumulation of type IV collagen |  |
| lacto-n-fucopentaose I |  |  | suppresses the promotion of the production and/or the accumulation of type IV collagen |
